Results: PubChem BioAssay AID743504 (Broad Institute, 2014)
Calls of active or inactive are those of the source.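 Rule for the calls: active = compounds blocking the hormone-driven reporter light with IC50 under 35 µM; inactive = IC50 above 35 µM, or no measured IC50.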

Target: Bursicon receptor (Drosophila rickets, LGR2)
Assay: inhibition of bursicon-stimulated LGR2 cAMP signaling – cell-based, HEK293, CRE-luciferase, beta-gal normalized, dry powder, set 4, dose response (AID 743504)
Settings: antagonist

Row | Structure (SMILES) | IC50
1 | C[C@H](CO)N1C[C@H](C)[C@H](CN(C)C(=O)Nc2ccc(F)cc2)OCCCC[C@H](C)Oc2ccc(NC(=O)C3CCCCC3)cc2C1=O | < 35 µM
2 | C[C@H](CO)N1C[C@H](C)[C@H](CN(C)C(=O)Nc2ccc3c(c2)OCO3)OCCCC[C@H](C)Oc2ccc(NC(=O)C3CCCCC3)cc2C1=O | < 35 µM
3 | C[C@@H]1CCCCO[C@H](CN(C)C(=O)Nc2ccc(F)cc2)[C@H](C)CN([C@@H](C)CO)C(=O)c2cc(NC(=O)C3CCCCC3)ccc2O1 | > 35 µM (inactive)

Continued, values first:

Row | IC50 | Structure (SMILES)
4 | < 35 µM | COc1ccc(NC(=O)N(C)C[C@@H]2OCCCC[C@H](C)Oc3ccc(NC(=O)C4CCCCC4)cc3C(=O)N([C@H](C)CO)C[C@@H]2C)cc1
5 | < 35 µM | C[C@H](CO)N1C[C@H](C)[C@H](CN(C)C(=O)Nc2ccccc2)OCCCC[C@H](C)Oc2ccc(NC(=O)C3CCCCC3)cc2C1=O
